Columns and labels:
[1] = biological target: MNK2a (pre-activated GST-MNK2a) (Homo sapiens (Human), UniProt Q9HBH9); test: MNK2a in vitro kinase assay (assay 1), ADP-Glo; assay type: biochemical; conditions: read-out: Mnk2 IC50
Procedure: A. MNK2a In Vitro Kinase Assay (Assay 1)
The inhibition of kinase activity of MNK2a was assessed using pre-activated GST-MNK2a. The white, 384-well OptiPlate F plates were purchased from PerkinElmer. The ADP-Glo Kinase Assay (including ultra pure ATP) was purchased from Promega (V9103). Activated MNK2a was obtained as described in WO2011/104340. […] ID No. 5 of WO 2011/104340 by the C-terminal —CONH2 group, was purchased from Thermo Fisher Scientific. All other materials were of highest grade commercially available. Compounds are tested in either serial dilutions or single dose concentrations. The compound stock solutions are 10 mM in 100% DMSO The serial compound dilutions are prepared in 100% DMSO followed by 1:27.3 intermediate dilution in assay buffer. The final DMSO concentration in assay will be <3%.
In the 384-well plates 3 μl of test compound from the intermediate dilution is mixed with 4 μl of the activated MNK2 enzyme (final concentration of 10 nM) and 4 μl of the peptide (final concentration of 25 μM)/ultra pure ATP (final concentration of 20 μM), all dissolved in assay buffer. This step is followed by an incubation time of 90 min, then 10 μl of ADP Glo reagent are added, followed by 40 min of incubation. Then 20 μl of kinase detection reagent are admixed. The plates are sealed and after an incubation period of 30 min, the luminescence signal is measured in an Envision reader to determine the amount of produced ADP. All incubation steps are performed at room temperature.
The assay buffer consists of 20 mM HEPES, 2 mM DTT, 0.01% BSA, 20 mM MgCl2 and 0.1% Pluronic F-127.
The luminescent signal generated is proportional to the ADP concentration produced and is correlated with activated MNK2 activity. The analysis of the data is performed by the calculation of the percentage of ATP consumption of activated MNK2 in the presence of the test compound compared to the consumption of ATP in the presence of activated MNK2 without compound. (RLU(sample)−RLU(low control))*100/(RLU(high value)−RLU(low control))
[RLU=Relative Luminescence Units]
Values of more than 100% CTL are normally related to compound/sample specific physico-chemical properties (e.g. solubility, light absorbance, fluorescence).
IC50 values based on dose response curves are calculated with the AssayExplorer software.

[2] = biological target: MNK1a (pre-activated GST-MNK1a) (Homo sapiens (Human), UniProt Q9BUB5); test: MNK1 in vitro kinase assay (assay 2), Z'-LYTE; assay type: biochemical; conditions: for inhibition at 1 µM: compound concentration of 1 μM, read-out: Mnk1 % Inh
Chain of MNK1a (pre-activated GST-MNK1a) (Q9BUB5 other isoform, or with tags, fused parts or gaps): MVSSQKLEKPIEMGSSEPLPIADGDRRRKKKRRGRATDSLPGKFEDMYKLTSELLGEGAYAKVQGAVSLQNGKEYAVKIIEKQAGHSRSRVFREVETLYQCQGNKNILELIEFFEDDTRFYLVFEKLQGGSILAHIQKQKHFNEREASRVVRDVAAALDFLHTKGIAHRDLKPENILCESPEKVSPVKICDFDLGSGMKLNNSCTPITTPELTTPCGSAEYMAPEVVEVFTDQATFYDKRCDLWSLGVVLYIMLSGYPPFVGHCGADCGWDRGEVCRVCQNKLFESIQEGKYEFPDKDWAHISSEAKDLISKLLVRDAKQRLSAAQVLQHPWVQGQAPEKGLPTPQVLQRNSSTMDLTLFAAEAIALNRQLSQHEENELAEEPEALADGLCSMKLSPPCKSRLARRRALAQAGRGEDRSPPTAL
From the text: B. MNK1 In Vitro Kinase Assay (Assay 2)
MNK1 Data can be obtained from the MNK1 Z′-LYTE® assay. The MNK1 Z′-LYTE® screening protocol and assay conditions are also described on www.invitrogen.com.
The assay is described as follows:
The Z′-LYTE® biochemical assay employs a fluorescence-based, coupled-enzyme format and is based on the differential sensitivity of phosphorylated and non-phosphorylated peptides to proteolytic cleavage. The peptide substrate is labeled with two fluorophores—one at each end—that make up a FRET pair.
In the primary reaction, the kinase transfers the gamma-phosphate of ATP to a single tyrosine, serine or threonine residue in a synthetic FRET-peptide. In the secondary reaction, a site-specific protease recognizes and cleaves non-phosphorylated FRET-peptides. Phosphorylation of FRET-peptides suppresses cleavage by the Development Reagent. Cleavage disrupts FRET between the donor (i.e., coumarin) and acceptor (i.e., fluorescein) fluorophores on the FRET-peptide, whereas uncleaved, phosphorylated FRET-peptides maintain FRET. A ratiometric method, which calculates the ratio (the Emission Ratio) of donor emission to acceptor emission after excitation of the donor fluorophore at 400 nm, is used to quantitate reaction progress, as shown in the equation below. Emission Ratio=Coumarin Emission(445 nm)/Fluorescein Emission(520 nm)
The inhibition of kinase activity of MNK1a was assessed using pre-activated GST-MNK1a. The 2×MKNK1 (MNK1) mixture is prepared in 50 mM HEPES pH 7.5, 0.01% BRIJ-35, 10 mM MgCl2, 4 mM MnCl2, 1 mM EGTA, 2 mM DTT. The final 10 μL Kinase Reaction consists of 13.5-54 ng MKNK1 (MNK1) and 2 μM Ser/Thr 07 in 50 mM HEPES pH 7.5, 0.01% BRIJ-35, 10 mM MgCl2, 2 mM MnCl2, 1 mM EGTA, 1 mM DTT. After the 1 hour Kinase Reaction incubation, 5 μL of a 1:32768 dilution of Development Reagent A is added.
The Test Compounds are screened in 1% DMSO (final) in the well.
All Peptide/Kinase Mixtures are diluted to a 2×working concentration in the MNK1 Kinase Buffer.
All ATP Solutions are diluted to a 4×working concentration in Kinase Buffer (50 mM HEPES pH 7.5, 0.01% BRIJ-35, 10 mM MgCl2, 1 mM EGTA).
Development Reagent Solution:
The Development Reagent is diluted in Development Buffer
Bar-coded Corning, low volume NBS, 384-well plate (Corning Cat. #3676)
1. 2.5 μL—4×Test Compound
2. 5 μL—2×Peptide/Kinase Mixture
5. 60-minute Kinase Reaction incubation at room temperature
6. 5 μL—Development Reagent Solution
8. 60-minute Development Reaction incubation at room temperature
9. Read on fluorescence plate reader and analyze the data
The following equations are used for each set of data points:
Correction for Background Fluorescence: FISample−FITCFI Ctl Emission Ratio (using values corrected for background fluorescence):Coumarin Emission (445 nm)/Fluorescein Emission (520 nm)
% Phosphorylation (% Phos): 1−((Emission Ratio×F100%)−C100%)/((C0%−C100%)+[Emission Ratio×(F100%−F0%)])*100
% Inhibition: 1−(% PhosSample/% Phos0% Inhibition Ctl)*100 FI=Fluorescence Intensity C100%=Average Coumarin emission signal of the 100% Phos. Control C0%=Average Coumarin emission signal of the 0% Phos. Control F100%=Average Fluorescein emission signal of the 100% Phos. Control F0%=Average Fluorescein emission signal of the 0% Phos. Control
SelectScreen® Kinase Profiling Service uses XLfit from IDBS. The dose response curve is curve fit to model number 205 (sigmoidal dose-response model).

Chain of MNK2a (pre-activated GST-MNK2a) (Q9HBH9 whole entry): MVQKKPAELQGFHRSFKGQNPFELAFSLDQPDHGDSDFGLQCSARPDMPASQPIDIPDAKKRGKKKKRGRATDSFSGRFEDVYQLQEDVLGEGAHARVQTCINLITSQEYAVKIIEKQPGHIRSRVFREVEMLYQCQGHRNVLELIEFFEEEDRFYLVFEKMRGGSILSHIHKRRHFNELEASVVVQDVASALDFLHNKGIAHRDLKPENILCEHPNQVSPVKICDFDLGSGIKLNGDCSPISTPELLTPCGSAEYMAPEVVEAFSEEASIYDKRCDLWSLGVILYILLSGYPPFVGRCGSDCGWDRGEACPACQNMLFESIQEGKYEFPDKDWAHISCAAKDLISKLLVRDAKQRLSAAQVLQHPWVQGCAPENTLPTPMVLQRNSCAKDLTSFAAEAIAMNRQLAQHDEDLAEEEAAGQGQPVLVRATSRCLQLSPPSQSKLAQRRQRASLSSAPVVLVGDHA

Structure (SMILES)	IC50 [1] [nM]	IC50 [2] [nM]	inhibition at 1 µM [2] [%]
Cc1c(OCCCN2CCN(C)C(=O)C2)c(N=S(C)(C)=O)cc2ncnc(Nc3ccc(F)cc3O[C@H](C)C(F)(F)F)c12 [Example 1.01]	5.5	162	–
Cc1c(OCCCN2CCCC2)c(N=S(C)(C)=O)cc2ncnc(Nc3ccc(F)cc3O[C@H](C)C(F)(F)F)c12 [Example 1.02]	2.4	51	–
CCOc1c(N=S(C)(C)=O)cc2ncnc(Nc3ccc(F)cc3O[C@H](C)C(F)(F)F)c2c1C [Example 1.03]	1.6	54	–
Cc1c(OCCN2CCOCC2)c(N=S(C)(C)=O)cc2ncnc(Nc3ccc(F)cc3O[C@H](C)C(F)(F)F)c12 [Example 1.04]	2.4	–	–
COc1c(N=S2(=O)CC(OC)C2)cc2ncnc(Nc3ccc(F)cc3O[C@H](C)C(=O)NCC(F)(F)F)c2c1C (some centres unmarked) [Example 2.01]	2.5	–	103
COc1c(N=S(C)(C)=O)cc2ncnc(Nc3ccc(F)cc3O[C@@H]3CO[C@H]4[C@@H]3OC[C@@H]4F)c2c1C [Example 2.02]	12.6	25	–
COc1c(N=S2(=O)CCCC2)cc2ncnc(Nc3ccc(F)cc3O[C@@H]3CO[C@@H]4CCO[C@@H]43)c2c1C [Example 2.03]	1.2	–	105
COc1c(N=S2(=O)CCC(O)CC2)cc2ncnc(Nc3ccc(F)cc3O[C@@H]3CO[C@@H]4CCO[C@@H]43)c2c1C (some centres unmarked) [Example 2.04]	1.2	–	105
COc1c(N=S2(=O)CCCC2)cc2ncnc(Nc3ccc(F)cc3O[C@H](C)C(=O)N[C@@H](C)C(F)(F)F)c2c1C [Example 2.05]	2.5	–	106
COc1c(N=S2(=O)CCC2)cc2ncnc(Nc3ccc(F)cc3O[C@@H]3CO[C@H]4[C@@H]3OC[C@H]4O)c2c1C [Example 2.06]	1.2	18	–
COc1c(N=S2(=O)CCC2)cc2ncnc(Nc3ccc(F)cc3O[C@H]3COC[C@@H]3O)c2c1C [Example 2.07]	2.7	–	–
COc1c(N=S2(=O)CCCCC2)cc2ncnc(Nc3ccc(F)cc3O[C@@H]3CO[C@@H]4CCO[C@@H]43)c2c1C [Example 2.08]	1.4	–	107
COc1c(N=S2(=O)CCCC2)cc2ncnc(Nc3ccc(F)cc3O[C@@H]3CO[C@H]4[C@@H]3OC[C@H]4O)c2c1C [Example 2.09]	1.8	14	–
COc1c(N=S2(=O)CCCC2)cc2ncnc(Nc3cccnc3O[C@@H]3CO[C@@H]4CCO[C@@H]43)c2c1C [Example 2.10]	3.3	–	96
COc1c(N=S2(=O)CCC2)cc2ncnc(Nc3ccc(F)cc3O[C@H](C)C(=O)NCC(F)(F)F)c2c1C [Example 2.11]	1.9	56	–
COc1c(N=S(C)(=O)C2CCOCC2)cc2ncnc(Nc3ccc(F)cc3O[C@@H]3CO[C@@H]4CCO[C@@H]43)c2c1C (some centres unmarked) [Example 2.12]	2.3	–	95

Structure (SMILES)	IC50 [1] [nM]	IC50 [2] [nM]	inhibition at 1 µM [2] [%]
COc1c(N=S(C)(C)=O)cc2ncnc(Nc3ccc(F)cc3O[C@@H]3CO[C@H]4[C@@H]3OC[C@H]4O)c2c1C [Example 2.13]	1.7	–	103
COc1c(N=S(C)(C)=O)cc2ncnc(Nc3ccc(F)cc3OC3CCOCC3)c2c1C [Example 2.14]	3.7	–	98
Cc1c(OCCCN2CCOCC2)c(N=S2(=O)CCC2)cc2ncnc(Nc3ccc(F)cc3O[C@H](C)C(F)(F)F)c12 [Example 2.15]	1.4	42	–
COc1c(N=S(C)(C)=O)cc2ncnc(Nc3ccc(F)cc3O[C@H](C)C(F)(F)F)c2c1C [Example 2.16]	3.5	–	102
COc1c(N=S2(=O)CCOCC2)cc2ncnc(Nc3ccc(F)cc3O[C@@H]3CO[C@@H]4CCO[C@@H]43)c2c1C [Example 2.17]	2.1	–	94
COc1c(N=S2(=O)CCC2)cc2ncnc(Nc3ccc(F)cc3O[C@@H]3CO[C@H]4[C@@H]3OC[C@H]4OC)c2c1Cl [Example 2.18]	1.3	–	95
COc1c(N=S(C)(=O)C(C)(C)C)cc2ncnc(Nc3ccc(F)cc3O[C@@H]3CO[C@@H]4CCO[C@@H]43)c2c1C (some centres unmarked) [Example 2.19]	2.8	–	102
COc1c(N=S(C)(C)=O)cc2ncnc(Nc3cc4cn[nH]c4cc3OC(C)C)c2c1C [Example 2.20]	3.8	57	–
COc1c(N=S2(=O)CCC2)cc2ncnc(Nc3cccnc3O[C@@H]3CO[C@@H]4CCO[C@@H]43)c2c1C [Example 2.21]	1.9	33	–
COc1c(N=S(C)(C)=O)cc2ncnc(Nc3ccc(F)cc3O[C@H]3CC[C@H](O)CC3)c2c1C [Example 2.22]	2.5	–	98
COc1c(N=S(C)(=O)CCO)cc2ncnc(Nc3ccc(F)cc3O[C@@H]3CO[C@@H]4CCO[C@@H]43)c2c1C (some centres unmarked) [Example 2.23]	2	–	105
COc1c(N=S(C)(C)=O)cc2ncnc(Nc3ccc(F)cc3O[C@H](C)C(=O)NCC(F)(F)F)c2c1C [Example 2.24]	4.4	–	100
COc1c(N=S(C)(C)=O)cc2ncnc(Nc3ccc(F)cc3O[C@@H]3CO[C@@H]4CCO[C@@H]43)c2c1C [Example 2.25]	0.8	18	–
COc1c(N=S2(=O)CCC2)cc2ncnc(Nc3ccc(F)cc3O[C@@H]3CO[C@H]4[C@@H]3OC[C@@H]4F)c2c1C [Example 2.26]	1	64	–
COc1c(N=S(C)(C)=O)cc2ncnc(Nc3ccc(F)cc3O[C@@H]3CO[C@H]4[C@@H]3OC[C@H]4OC)c2c1Cl [Example 2.28]	2.2	–	–
